The source of these data is ChEMBL document CHEMBL5584339, “Design, Synthesis, and Evaluation of the Antitubercular Activity of 5-Phenyl Substituted-5, 6-dihydropyrido[2, 3-d]pyrimidine-4, 7(3H, 8H)-dione Compounds” (J Med Chem, 2024).

Structures are written as SMILES. Converted amounts (≈) assume the structure as drawn.

What all share (format): functional
Assay [1] relates to Mycobacterium tuberculosis. As to the kind of experiment: Antitubercular activity against isoniazid/rifampicin resistant Mycobacterium tuberculosis 16833 incubated for 7 days by alamar blue assay. Conditions: Mycobacterium tuberculosis, 16833, 168 h; time 7 day.
The test system of assay [2] is Mycobacterium tuberculosis. As to the kind of experiment: Antitubercular activity against isoniazid/rifampicin resistant Mycobacterium tuberculosis 12525 incubated for 7 days by alamar blue assay. The settings on record: Mycobacterium tuberculosis, 12525, 168 h; time 7 day. On the technique in general: The colour change of resazurin is a common sign of viable cells or microbes.

Assay [3] concerns Mycobacterium tuberculosis. As to the kind of experiment: Antitubercular activity against isoniazid/streptomycin/rifampicin/ethambutol/p-aminosalicylate/rifabutin/ofloxacin resistant Mycobacterium tuberculosis 13946 incubated for 7 days by alamar blue assay. The settings on record: Mycobacterium tuberculosis, 13946, 168 h; time 7 day.
Assay [4] deals with Mycobacterium tuberculosis. The experiment in a line: Antitubercular activity against isoniazid/rifampicin resistant Mycobacterium tuberculosis 16995 incubated for 7 days by alamar blue assay. The settings on record: Mycobacterium tuberculosis, 16995, 168 h; time 7 day.
Assay [5] concerns Mycobacterium tuberculosis. The experiment in a line: Antitubercular activity against isoniazid/streptomycin/rifampicin/ethambutol/p-aminosalicylate/prothionamide/capreomycin resistant Mycobacterium tuberculosis 14862 incubated for 7 days by alamar blue assay. Conditions: Mycobacterium tuberculosis, 14862, 168 h; time 7 day.

In the case of `C=CCSc1nc2c(c(=O)[nH]1)C(c1ccc(OC)c(O)c1)CC(=O)N2` (stereo not given), the MIC (as a rule, the smallest concentration in the dilution series that meets the test's criterion for growth inhibition) in assay [1] turned out to be 4 µg/mL (≈ 11.1 µM); in assay [2], 8 µg/mL (≈ 22.3 µM); in assay [3], 4 µg/mL (≈ 11.1 µM); in assay [4], 16 µg/mL (≈ 44.5 µM); in assay [5], 15.6 µg/mL (≈ 43.5 µM).
On to `CCCSc1nc2c(c(=O)[nH]1)[C@@H](c1ccc(OC)cc1)CC(=O)N2`, for which the MIC was 0.06 µg/mL (≈ 0.174 µM) in assay [1]; 0.06 µg/mL (≈ 0.174 µM) in assay [2]; 0.125 µg/mL (≈ 0.362 µM) in assay [3]; 0.125 µg/mL (≈ 0.362 µM) in assay [4]; 0.06 µg/mL (≈ 0.174 µM) in assay [5].
Consider `CO[C@H]1/C=C/O[C@@]2(C)Oc3c(C)c(O)c4c(O)c(c(/C=N/N5CCN(C)CC5)c(O)c4c3C2=O)NC(=O)/C(C)=C\C=C\[C@H](C)[C@H](O)[C@@H](C)[C@@H](O)[C@@H](C)[C@H](OC(C)=O)[C@@H]1C` [RIFAMPIN], for which the MIC in assay [1], in assay [2], in assay [3], in assay [4] and in assay [5] was more than 10 µg/mL throughout.
On to `C=CCSc1nc2c(c(=O)[nH]1)C(c1ccc(OCC)cc1)CC(=O)N2` (stereo not given), for which the MIC is 4 µg/mL (≈ 11.2 µM) in assay [1]; 4 µg/mL (≈ 11.2 µM) in assay [2]; 4 µg/mL (≈ 11.2 µM) in assay [3]; 4 µg/mL (≈ 11.2 µM) in assay [4]; 1 µg/mL (≈ 2.8 µM) in assay [5].
Take `CCCCSc1nc2c(c(=O)[nH]1)C(c1ccc(OC)cc1)CC(=O)N2` (stereo not given): the MIC in assay [1] is 1 µg/mL (≈ 2.78 µM); in assay [2], 2 µg/mL (≈ 5.56 µM); in assay [3] it was 2 µg/mL (≈ 5.56 µM); in assay [4], 2 µg/mL (≈ 5.56 µM); in assay [5], 1 µg/mL (≈ 2.78 µM).
As to `CCCSc1nc2c(c(=O)[nH]1)C(c1ccc(OC)cc1[N+](=O)[O-])CC(=O)N2` (racemic), the MIC in assay [1] stood at 0.25 µg/mL (≈ 0.64 µM); in assay [2] it was 0.5 µg/mL (≈ 1.28 µM); in assay [3] it was 1 µg/mL (≈ 2.56 µM); in assay [4] it was 0.5 µg/mL (≈ 1.28 µM); in assay [5], 0.25 µg/mL (≈ 0.64 µM).
`CCCS(=O)(=O)c1nc2c(c(=O)[nH]1)[C@@H](c1ccc(OC)cc1[N+](=O)[O-])CC(=O)N2`: in assay [5], the MIC was more than 32 µg/mL.
As for `CCCSc1nc2c(c(=O)[nH]1)C(c1ccc(OC)c(N)c1)CC(=O)N2` (stereo not given), the MIC was found to be 4 µg/mL (≈ 11.1 µM) in assay [1]; 8 µg/mL (≈ 22.2 µM) in assay [2]; 16 µg/mL (≈ 44.4 µM) in assay [3]; 8 µg/mL (≈ 22.2 µM) in assay [4]; 4 µg/mL (≈ 11.1 µM) in assay [5].
Take `CCC[S+]([O-])c1nc2c(c(=O)[nH]1)[C@@H](c1ccc(OC)cc1[N+](=O)[O-])CC(=O)N2` (stereo not given in full): the MIC in assay [5] is more than 32 µg/mL.
Regarding `CCCOc1ccc(C2CC(=O)Nc3nc(SCCC)[nH]c(=O)c32)cc1` (stereo not given), the MIC in assay [1] is 0.5 µg/mL (≈ 1.34 µM); in assay [2], 2 µg/mL (≈ 5.36 µM); in assay [3], 1 µg/mL (≈ 2.68 µM); in assay [4], 2 µg/mL (≈ 5.36 µM); in assay [5], 2 µg/mL (≈ 5.36 µM).
With `C=CCSc1nc2c(c(=O)[nH]1)C(c1ccc(OC)cc1[N+](=O)[O-])CC(=O)N2` (stereo not given), the minimum inhibitory concentration (MIC) was determined as 1 µg/mL (≈ 2.57 µM) in assay [1]; 2 µg/mL (≈ 5.15 µM) in assay [2]; 2 µg/mL (≈ 5.15 µM) in assay [3]; 2 µg/mL (≈ 5.15 µM) in assay [4]; 1 µg/mL (≈ 2.57 µM) in assay [5].
For `CCCSc1nc2c(c(=O)[nH]1)C(c1ccc(OC)c(O)c1)CC(=O)N2` (stereo not given), the MIC is 4 µg/mL (≈ 11.1 µM) in assay [1]; 8 µg/mL (≈ 22.1 µM) in assay [2]; 4 µg/mL (≈ 11.1 µM) in assay [3]; 8 µg/mL (≈ 22.1 µM) in assay [4]; 8 µg/mL (≈ 22.1 µM) in assay [5].
The compound `CCCSc1nc2c(c(=O)[nH]1)[C@H](c1ccc(OC)cc1[N+](=O)[O-])CC(=O)N2` yielded an MIC in assay [5] of 13.4 µg/mL (≈ 34.4 µM).
With `NNC(=O)c1ccncc1` [ISONIAZID], the MIC in assay [1], in assay [2], in assay [3], in assay [4] and in assay [5] was more than 10 µg/mL each time.
As for `CCC[S+]([O-])c1nc2c(c(=O)[nH]1)[C@H](c1ccc(OC)cc1[N+](=O)[O-])CC(=O)N2` (stereo not given in full), in assay [5], the MIC is more than 32 µg/mL.
`CCCSc1nc2c(c(=O)[nH]1)[C@@H](c1ccc(OC)cc1[N+](=O)[O-])CC(=O)N2`: the MIC turned out to be 0.06 µg/mL (≈ 0.154 µM) in assay [1]; 0.125 µg/mL (≈ 0.32 µM) in assay [2]; 0.125 µg/mL (≈ 0.32 µM) in assay [3]; 0.125 µg/mL (≈ 0.32 µM) in assay [4]; 0.059 µg/mL (≈ 0.151 µM) in assay [5].
For `C=CCSc1nc2c(c(=O)[nH]1)C(c1ccc(OC)cc1)CC(=O)N2` (stereo not given), the minimal inhibitory concentration (MIC) was determined as 1 µg/mL (≈ 2.91 µM) in assay [1]; 2 µg/mL (≈ 5.82 µM) in assay [2]; 1 µg/mL (≈ 2.91 µM) in assay [3]; 2 µg/mL (≈ 5.82 µM) in assay [4]; 1 µg/mL (≈ 2.91 µM) in assay [5].
Take `CCC[S+]([O-])c1nc2c(c(=O)[nH]1)[C@H](c1ccc(OC)cc1)CC(=O)N2` (stereo not given in full): the MIC in assay [5] is more than 32 µg/mL.
On the same count and under the same terms, in the case of `CCC[S+]([O-])c1nc2c(c(=O)[nH]1)[C@@H](c1ccc(OC)cc1)CC(=O)N2` (stereo not given in full) it was more than 32 µg/mL.
Turning to `C=CCSc1nc2c(c(=O)[nH]1)C(c1ccc(OC)cc1O)CC(=O)N2` (stereo not given), the MIC was found to be 8 µg/mL (≈ 22.3 µM) in assay [1]; 16 µg/mL (≈ 44.5 µM) in assay [2]; 8 µg/mL (≈ 22.3 µM) in assay [3]; 32 µg/mL (≈ 89 µM) in assay [4]; 13.3 µg/mL (≈ 36.9 µM) in assay [5].
On to `CCCSc1nc2c(c(=O)[nH]1)C(c1ccc(OCC)cc1)CC(=O)N2` (stereo not given), for which the MIC in assay [1] was determined as 0.5 µg/mL (≈ 1.39 µM); in assay [2] it was 1 µg/mL (≈ 2.78 µM); in assay [3] it was 2 µg/mL (≈ 5.56 µM); in assay [4] it was 1 µg/mL (≈ 2.78 µM); in assay [5], 0.25 µg/mL (≈ 0.696 µM).
`CCCSc1nc2c(c(=O)[nH]1)C(c1ccc(OC(C)C)cc1)CC(=O)N2` (stereo not given): the MIC was found to be 1 µg/mL (≈ 2.68 µM) in assay [1]; 4 µg/mL (≈ 10.7 µM) in assay [2]; 1 µg/mL (≈ 2.68 µM) in assay [3]; 2 µg/mL (≈ 5.36 µM) in assay [4]; 2 µg/mL (≈ 5.36 µM) in assay [5].
`C=CCSc1nc2c(c(=O)[nH]1)C(c1ccc(OCCC)cc1)CC(=O)N2` (stereo not given): the MIC worked out at 1 µg/mL (≈ 2.69 µM) in assay [1]; 4 µg/mL (≈ 10.8 µM) in assay [2]; 1 µg/mL (≈ 2.69 µM) in assay [3]; 4 µg/mL (≈ 10.8 µM) in assay [4]; 4 µg/mL (≈ 10.8 µM) in assay [5].
As for `CCCS(=O)(=O)c1nc2c(c(=O)[nH]1)[C@@H](c1ccc(OC)cc1)CC(=O)N2`, the MIC in assay [5] was more than 32 µg/mL.
With `CCCSc1nc2c(c(=O)[nH]1)C(c1ccc(OC)cc1)CC(=O)N2` (racemic), the MIC in assay [1] turned out to be 0.25 µg/mL (≈ 0.724 µM); in assay [2], 0.5 µg/mL (≈ 1.45 µM); in assay [3], 0.25 µg/mL (≈ 0.724 µM); in assay [4], 0.5 µg/mL (≈ 1.45 µM); in assay [5], 0.25 µg/mL (≈ 0.724 µM).
With `CCCS(=O)(=O)c1nc2c(c(=O)[nH]1)[C@H](c1ccc(OC)cc1)CC(=O)N2`, in assay [5], the MIC is more than 32 µg/mL.
As for `CCCSc1nc2c(c(=O)[nH]1)C(c1ccc(OC)cc1O)CC(=O)N2` (stereo not given), the MIC in assay [1] was 1 µg/mL (≈ 2.77 µM); in assay [2], 4 µg/mL (≈ 11.1 µM); in assay [3] it was 2 µg/mL (≈ 5.53 µM); in assay [4], 4 µg/mL (≈ 11.1 µM); in assay [5] it was 4 µg/mL (≈ 11.1 µM).
`CCCS(=O)(=O)c1nc2c(c(=O)[nH]1)[C@H](c1ccc(OC)cc1[N+](=O)[O-])CC(=O)N2` returned an MIC in assay [5] of more than 32 µg/mL.
Same read-out and setting: under `CCCSc1nc2c(c(=O)[nH]1)[C@H](c1ccc(OC)cc1)CC(=O)N2` stands 12.8 µg/mL (≈ 37.1 µM).
In the case of `CCCOc1ccc(C2CC(=O)Nc3nc(SCCC)[nH]c(=O)c32)c(O)c1` (stereo not given), the MIC in assay [1] was 2 µg/mL (≈ 5.14 µM); in assay [2] it was 8 µg/mL (≈ 20.5 µM); in assay [3], 8 µg/mL (≈ 20.5 µM); in assay [4], 8 µg/mL (≈ 20.5 µM); in assay [5] it was 2 µg/mL (≈ 5.14 µM).
